Test results reported in patent publication US7815900B1, “Use of C3-C5 monosaccharides to protect keratinous fibers” (L'Oréal S.A., priority 2000, dated 2010).

Assays:
[1] = DSC doublet peak area (α-structure) of hair after heat cycles
Method: Normal blonde hair was bleached with Clairol Basic White Bleach (40 volume H2O2) for 20 min at standard room temperature and humidity. The bleached swatches were rinsed with tap water, and soaked in an excess of deionized water for 2 hours. The swatches were air-dried and equilibrated for 48 hours prior to further treatment. Some of the bleached swatches were subsequently “permed” using a Reforming Lotion (10% TGA, pH 8.8, 20 minutes) and then neutralized with 2% H2O2, pH 3 (5 minutes). The bleached/permed swatches were rinsed with tap water, and soaked in an excess of deionized water for 2 hours. The swatches were air-dried and equilibrated for 48 hours prior to further treatment. The swatches that were heat treated were treated with 0.06M solutions of hexoses and pentoses for 10 min at 45° C. and then were heated for 12 cycles. The swatches were rinsed after the heat application.
In the DSC tests, finely cut hair (4-5 mg) was crimped in an aluminum pan that was punctured prior to each run. The samples were heated from 25° C. to 300° C., at a scanning rate of 20° C./min, with 5 runs per treatment. The results were averaged.
(§1) Normal blonde hair was bleached with Clairol Basic White Bleach, 40 volume H2O2, for 20 min at room temperature. One batch of normal and bleached hair swatches underwent five heat cycles at 130° C., where one treatment cycle involved the following steps (1-4):
(§2) 1. The swatches were treated with 0.06 M solutions of monosaccharides in deionized water (about 1 wt %) for 10 min at 45° C.
(§3) 2. The treated swatches were blow-dried for 1 min.
(§4) 3. The heat was applied for 1 min in the form of a flat hair iron Windmere “Solid Gold” (130° C.).
(§5) 4. The swatches were rinsed and blot-dried with a paper-towel.
(§6) The treatment solutions included four pentoses (D-xylose, D-arabinose, D-lyxose, and D-ribose, 1% each) and one hexose (1.2% D-glucose). Deionized water was used as a control treatment. After the heat experiment, the hair was rinsed in water, air-dried, and equilibrated for 24 hours in the humidity chamber at 25° C. and 50% RH prior to further testing. These swatches are referred to as treated at 130° C.
(§7) A second batch of normal and bleached hair swatches were treated in a similar way and blow-dried, without application of the hot iron. The treatment was also repeated 5 times, the swatches from the second batch are referred to as treated at 45° C.
Normal blonde hair was divided in two batches. The hair from the first batch was bleached with Clairol Basic White Bleach, 40 volume H2O2, for 20 min at room temperature and humidity. The hair from the second batch was first bleached as above, and then permed: Reforming lotion-10% Thioglycolic acid, pH 8.8, 20 min; neutralizer-2% hydrogen peroxide, 5 min. The oxidatively damaged hair was equilibrated for 24 hours prior to further testing.
Both the bleached and the bleached/permed hair were subjected to heat treatment, as in Example 2. The heat treatment experiment involved 12 heat cycles including application of sugar or control solution before each heat application, and rinsing after the heat application. Deionized water was used as a control treatment.
After the heat experiment, the hair was rinsed in water, air-dried, and equilibrated for 24 h in the humidity chamber at 25° C. and 50% RH prior to further testing. The effect of the hexoses vs. pentoses on the dry tensile strength (INSTRON) and the alpha-structure (doublet peak area, DSC) was tested on the bleached hair (Table 13). The effect of a hexose (D-glucose) vs. a pentose (D-Xylose) on wet tensile strength (DIA-STRON) was tested both on the bleached and the bleached/permed hair (Table 14). Application of 0.06M solutions of pentoses protected the bleached and the bleached/permed hair against thermal damage (α-structure; wet and dry tensile strength).

[2] = Dry tensile strength (Instron) after heat cycles; conditions: normal blonde hair, 0.06 M solutions, n = 50 fibers; for Work 25%: dry, 5 cycles at 45° C.; for Work 25% (Dry): 5 heat cycles at 130° C.
Method: Tensile strength was determined using both the Instron (50 dry fibers per tests) and the Dia-Stron (100 wet fibers per test), with the stretching rate of 100 mm/min. The following parameters were determined: Young's Modulus (N/m^2), Work to stretch 25% (J/m^2); Extension to Break (degree of elongation) (%); Work to Break (J/m^2).
as §1, §2, §3, §4, §5, §6, §7

[3] = Wet tensile strength (Dia-Stron) after heat cycles; conditions: for Work 25% (Wet): 0.06 M solutions; for Work 25% (Wet) / Extension-Break / Work 25% / Work-Break / Young's Modulus: n = 100 fibers; for Extension-Break / Work 25% / Work-Break / Young's Modulus: 0.06 M, DIA-STRON; for Dia-Stron, wet fibers Extension: 1.0% solution, n = 100
Method: Normal blonde hair was bleached with Clairol Basic White Bleach (40 volume H2O2) for 20 min at standard room temperature and humidity. The bleached swatches were rinsed with tap water, and soaked in an excess of deionized water for 2 hours. The swatches were air-dried and equilibrated for 48 hours prior to further treatment. Some of the bleached swatches were subsequently “permed” using a Reforming Lotion (10% TGA, pH 8.8, 20 minutes) and then neutralized with 2% H2O2, pH 3 (5 minutes). The bleached/permed swatches were rinsed with tap water, and soaked in an excess of deionized water for 2 hours. The swatches were air-dried and equilibrated for 48 hours prior to further treatment. The swatches that were heat treated were treated with 0.06M solutions of hexoses and pentoses for 10 min at 45° C. and then were heated for 12 cycles. The swatches were rinsed after the heat application. Tensile strength was determined using both the Instron (50 dry fibers per tests) and the Dia-Stron (100 wet fibers per test), with the stretching rate of 100 mm/min. The following parameters were determined: Young's Modulus (N/m^2), Work to stretch 25% (J/m^2); Extension to Break (degree of elongation) (%); Work to Break (J/m^2). Both the bleached and the bleached/permed hair were subjected to heat treatment, as in Example 2. The heat treatment experiment involved 12 heat cycles including application of sugar or control solution before each heat application, and rinsing after the heat application. Deionized water was used as a control treatment. After the heat experiment, the hair was rinsed in water, air-dried, and equilibrated for 24 h in the humidity chamber at 25° C. and 50% RH prior to further testing. The effect of the hexoses vs. pentoses on the dry tensile strength (INSTRON) and the alpha-structure (doublet peak area, DSC) was tested on the bleached hair (Table 13). The effect of a hexose (D-glucose) vs. a pentose (D-Xylose) on wet tensile strength (DIA-STRON) was tested both on the bleached and the bleached/permed hair (Table 14). Application of 0.06M solutions of pentoses protected the bleached and the bleached/permed hair against thermal damage (α-structure; wet and dry tensile strength).

[4] = bleached hair after 12 heat cycles, 0.06 M solutions
[5] = bleached hair after 12 heat cycles, 0.06 M solutions (Table 14)
[6] = bleached hair, 5 cycles at 45° C., 0.06 M solutions
[7] = bleached hair, 5 heat cycles at 130° C., 0.06 M solutions
[8] = bleached hair after 12 heat cycles
[9] = bleached/permed hair after 12 heat cycles
[10] = wet bleached hair (blonde hair in the source) after 12 heat cycles
[11] = wet bleached/permed hair after 12 heat cycles

**Q.** Which results are given for `O=C[C@H](O)[C@@H](O)[C@H](O)[C@H](O)CO` [D-Glucose, reference compound]?
**A.** Doublet Peak Area [1, 4]: 5.56 +/− 1.16 J/g hair; Doublet Peak Area [1, 5]: 5.56 +/− 1.16 J/g hair; Doublet Peak Area [1, 6]: 6.35 +/− 2.71 J/g hair; Doublet Peak Area [1, 7]: 5.37 +/− 1.22 J/g hair; Work 25% [2]: 837.0 +/− 255.9 J/m^2; Work 25% (Dry) [2]: 836.9 +/− 119.6 J/m^2; protection against heat treatment based on tensile properties and DSC, in words ([3]; Example 2, 12 heat cycles): little or no protection; Work 25% (Wet) [3, 8]: 187.0 +/− 74.8 J/m^2; Work 25% (Wet) [3, 9]: 155.0 +/− 47.5 J/m^2; Extension-Break [3, 10]: 64.20 +/− 10.4%; Work 25% [3, 10]: 187.0 +/− 74.8 J/m^2; Work-Break [3, 10]: 1,130 +/− 453 J/m^2; Young's Modulus [3, 10]: 397.0 +/− 106.0 MN/m^2; Extension-Break [3, 11]: 63.50 +/− 7.65%; Work 25% [3, 11]: 155.0 +/− 47.5 J/m^2; Work-Break [3, 11]: 979.0 +/− 300 J/m^2; Young's Modulus [3, 11]: 136.0 +/− 92.5 MN/m^2

**Q.** For `O=C[C@H](O)[C@@H](O)[C@H](O)CO` [D-Xylose], which “protection effect (normalized α-structure peak area), in words” value ([1]; bleached and bleached/permed hair, 12 heat cycles) is on record?
**A.** protection effect was found

**Q.** And the “Doublet Peak Area” value [1, 4]?
**A.** 9.74 +/− 2.13 J/g hair

**Q.** And the “Doublet Peak Area” value [1, 5]?
**A.** 9.74 +/− 2.13 J/g hair

**Q.** What about the “Doublet Peak Area” value [1, 6] of the same molecule?
**A.** 8.41 +/− 1.33 J/g hair

**Q.** And the “Doublet Peak Area” value [1, 7]?
**A.** 9.66 +/− 2.59 J/g hair

**Q.** And the Normalized area ([1]; bleached hair, 12 heat cycles, 0.06 M)?
**A.** 9.74 +/− 2.13 J/g hair

**Q.** What about the “Work 25%” value [2] of the same molecule?
**A.** 1,155 +/− 224 J/m^2

**Q.** What about the “Work 25% (Dry)” value [2] of the same molecule?
**A.** 1,150 +/− 818 J/m^2

**Q.** And the “extension to break compared to non-treated or water-treated hair, in words” value ([3]; bleached and bleached/permed hair, 1% solution prior to heat application)?
**A.** significantly shorter

**Q.** What about the “Dia-Stron, wet fibers Extension” value ([3]; bleached hair after 12 cycles at 130° C.) of the same molecule?
**A.** 52.80 +/− 9.29%

**Q.** And the “Work 25% (Wet)” value [3, 8]?
**A.** 432.0 +/− 137.0 J/m^2

**Q.** What about the “Dia-Stron, wet fibers Extension” value ([3]; bleached/permed hair after 12 cycles at 130° C.) of the same molecule?
**A.** 54.30 +/− 4.70%

**Q.** What about the “Work 25% (Wet)” value [3, 9] of the same molecule?
**A.** 199.0 +/− 74.2 J/m^2

**Q.** And the “protection against heat (wet tensile properties) compared to water and 1.2% D-glucose, in words” value ([3]; wet bleached and bleached/permed hair, 12 heat cycles, 1% solution)?
**A.** statistically significant protection against heat

**Q.** And the Extension-Break [3, 10]?
**A.** 52.80 +/− 9.29%

**Q.** What about the “Work 25%” value [3, 10] of the same molecule?
**A.** 432.0 +/− 137.0 J/m^2

**Q.** And the Work-Break [3, 10]?
**A.** 1,600 +/− 526 J/m^2

**Q.** What about the “Young's Modulus” value [3, 10] of the same molecule?
**A.** 434.0 +/− 99.1 MN/m^2

**Q.** What about the Extension-Break [3, 11] of the same molecule?
**A.** 54.30 +/− 4.70%

**Q.** What about the “Work 25%” value [3, 11] of the same molecule?
**A.** 199.0 +/− 74.2 J/m^2

**Q.** What about the Work-Break [3, 11] of the same molecule?
**A.** 620.0 +/− 231.0 J/m^2

**Q.** What about the “Young's Modulus” value [3, 11] of the same molecule?
**A.** 170.0 +/− 88.6 MN/m^2
